{"source": "patent US10935552B2", "about": "“Aie luminogens for visualization and treatment of cancer” (THE HONG KONG UNIVERSITY OF SCIENCE AND TECHNOLOGY, priority 2015, dated 2021)", "key": {"[1]": {"system": "PC-9 cells", "assay": "Cell imaging, PC-9 cells", "format": "cell-based, human", "details": "PC-9, 200 nM, 20 and 10 mins", "description": "The PC-9, HepG2, and HCC827 cells were grown overnight on a 35 mm petri dish with a cover slip. The live cells were incubated with 200 nM of TPE-IQ-2O for 20 and 10 mins. In all the experiments, the cancer cells are fluorescent in solely staining.\nHepG2 cells (human hepatocarcinoma cell line), PC-9 cells (human lung adenocarcinoma cell line), Hela cells (human cervical carcinoma cell line), and LX2 cells (normal cell, human hepatic stellate cell line) were stained with 200 nM DPA-IQ for 10 min. Images were taken under the same equipment settings. Scale bar: 30 μm. Excitation wavelength: 400-440 nm."}, "[2]": {"system": "COS-7 cells", "assay": "LDH cytotoxicity assay, COS-7 cells", "format": "cell-based, simian", "details": "COS-7, with or without white light irradiation", "description": "(§1) The HeLa and COS-7 cells were seeded in 96-well plate for 24 hrs. Then a different concentration of TPE-IQ-2O was added into each well. After 30 mins TPE-IQ-2O treatment in the dark, the dye was removed. Half of the cells were treated with white light irradiation for 90 mins and the rest of cells were kept in the dark. After another 24 hrs of incubation, 10 μL of 10× lysis buffer bromide was added to untreated cells as Maximum LDH Activity, while 10 μL ultrapure water was added to other wells. After incubation at 37° C. 5% CO2 for 45 mins, 50 μL of each well sample medium was transferred to a new 96-well plate, followed by addition of 50 μL reaction mixture. 50 μL stop solution were added into each well after 30 mins incubation protected from light. Then the absorbance was achieved by plate reader."}, "[3]": {"system": "MDCK-II cells", "assay": "Cell imaging under fluorescent microscope, MDCK-II normal cells", "format": "cell-based, Canine", "details": "MDCK-II stained alone, 200 nM, 10 mins", "description": "Cell culture: HeLa cells were cultured in the MEM containing 10% FBS and 1% antibiotics (100 units/mL penicillin and 100 µg/mL streptomycin) in a 5% CO2 humidity incubator at 37° C. COS-7, MDA-MB-231, MCF-7, and MDCK-II cells were culture in the DMEM containing 10% FBS and antibiotics (100 units/mL penicillin and 100 µg/mL streptomycin) in a 5% CO2 humidity incubator at 37° C.\nCell imaging: two different kind of cells were grown overnight on a 35 mm petri dish with a cover slip. The live cells were incubated with 200 nM of TPE-IQ-2O for 1, 5, 10, and 20 mins. In a typical experiment, 2 μL of a 10 mM stock solution of TPE-IQ-2O in DMSO was diluted to 2 mL with cell culture medium, followed by further dilution to desired concentration. The cells were imaged under a fluorescent microscope (BX41 Microscope) using the same excitation and emission filters: excitation filter=400-440 nm, dichroic mirror=455 nm, and emission filter=465 nm long pass.\nTwo different kinds of cells were grown overnight on a 35 mm petri dish with a cover slip. The live cells were incubated with 200 nM of TPE-IQ-2O for 10 mins. […] Condition: 200 nM 10 mins (Filter: both close; Channel 5; EX: 400-440 nm; Exposure time: bright field: 1000 ms Fluorescence: 1000 ms."}, "[4]": {"system": "COS-7 cells", "assay": "Cell imaging under fluorescent microscope, COS-7 normal cells", "format": "cell-based, simian", "details": "COS-7 stained alone, 200 nM, 1-20 min", "description": "Cell culture: HeLa cells were cultured in the MEM containing 10% FBS and 1% antibiotics (100 units/mL penicillin and 100 µg/mL streptomycin) in a 5% CO2 humidity incubator at 37° C. COS-7, MDA-MB-231, MCF-7, and MDCK-II cells were culture in the DMEM containing 10% FBS and antibiotics (100 units/mL penicillin and 100 µg/mL streptomycin) in a 5% CO2 humidity incubator at 37° C. Cell imaging: two different kind of cells were grown overnight on a 35 mm petri dish with a cover slip. The live cells were incubated with 200 nM of TPE-IQ-2O for 1, 5, 10, and 20 mins. […] Condition: 200 nM (Filter: both close; Channel 5; EX: 400-440 nm; Exposure time: bright field: 1000 ms Fluorescence: 1000 ms. Two different kinds of cells were grown overnight on a 35 mm petri dish with a cover slip. The live cells were incubated with 200 nM of TPE-IQ-2O for 20, 10, and 5 mins. The MCF-7 cells were stained by TPE-IQ-2O; the COS-7 cells were stained by TPE-IQ-2O; the MCF-7 cells and COS-7 cells were co-cultured and stained together by TPE-IQ-2O. Condition: 200 nM (Filter: both close; Channel 5; EX: 400-440 nm; Exposure time: bright field: 1000 ms Fluorescence: 1000 ms. Two different kinds of cells were grown overnight on a 35 mm petri dish with a cover slip. […] Condition: 200 nM (Filter: both close; Channel 5; EX: 400-440 nm; Exposure time: bright field: 1000 ms Fluorescence: 1000 ms."}, "[5]": {"system": "HeLa cells", "assay": "LDH cytotoxicity assay, HeLa cells", "format": "cell-based, human", "description": "as §1"}, "[6]": {"system": "mitochondria", "assay": "Co-staining with commercial organelle trackers in HeLa cells (mitochondria staining)", "format": "cell-based, human", "details": "HeLa, 200 nM with Mito-tracker red/Lyso-tracker red/DAPI, 20 mins", "description": "The HeLa cells were grown overnight on a 35 mm petri dish with a cover slip. Then the HeLa cells were stained with 200 nM TPE-IQ-2O and Mito-tracker red (50 nM)/Lyso-tracker red (50 nM)/DAPI (500 nM) for 20 mins.\nThe DMSO solution of DPA-IQ was almost non-emissive while the aggregation state powder of this material emits strong green luminescence upon the UV excitation.\nThe commercially available MitoTracker Red FM is co-stained as a control together with Naph-IQ."}}}
{"compound": "CCC[n+]1cc2ccc(C(=C(c3ccc(OC)cc3)c3ccc(OC)cc3)c3ccccc3)cc2c(-c2ccccc2)c1-c1ccccc1", "note": "[TPE-IQ-2O, 6-(2,2-bis(4-methoxyphenyl)-1-phenylvinyl)-3,4-diphenyl-2-propylisoquinolin-2-ium]", "values": [{"measurement": "Fluorescence of stained cells", "setting": "[1]", "result": "fluorescent"}, {"measurement": "LDH cytotoxicity", "setting": "[2]", "result": "no obvious cytotoxicity"}, {"measurement": "Fluorescence of stained cells", "setting": "[3]", "result": "not stained"}, {"measurement": "Fluorescence of stained cells", "setting": "[4]", "result": "not stained"}, {"measurement": "LDH cytotoxicity", "setting": "[5]; white light irradiation for 90 mins", "result": "HeLa cells decreased as the concentration of TPE-IQ-2O increased"}, {"measurement": "LDH cytotoxicity", "setting": "[5]; without white light irradiation", "result": "no obvious cytotoxicity"}, {"measurement": "Organelle selectivity", "setting": "[6]", "result": "can selectively target the mitochondria"}]}
